Assays:
Format in all cases: in vivo
[1] = system: bermudagrass (Cynodon dactylon); test: Test B pre-/postemergence plant response
Method in brief: (§1)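 Seeds sown in loam–sand blend were treated preemergence, and plants at 2–18 cm (1- to 4-leaf stage) in peat-based medium were treated postemergence; compounds were formulated in non-phytotoxic solvent with surfactant. After 13–15 days in greenhouse, response was visually rated against controls, 0 (no effect) to 100 (complete control).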

[2] = system: green foxtail (Setaria viridis); test: Test B pre-/postemergence plant response
Method in brief: as §1

[3] = system: velvetleaf (Abutilon theophrasti); test: Test B pre-/postemergence plant response
Method in brief: as §1

[4] = system: wheat (Triticum aestivum); test: Test B pre-/postemergence plant response
Method in brief: as §1

[5] = system: morningglory (Ipomoea coccinea); test: Test B pre-/postemergence plant response
Method in brief: as §1

[6] = system: wild oat (Avena fatua); test: Test B pre-/postemergence plant response
Method in brief: as §1

[7] = system: downy bromegrass (Bromus tectorum); test: Test B pre-/postemergence plant response
Method in brief: as §1

[8] = system: blackgrass (Alopecurus myosuroides); test: Test B pre-/postemergence plant response
Method in brief: as §1

[9] = system: cocklebur (Xanthium strumarium); test: Test B pre-/postemergence plant response
Method in brief: as §1

[10] = system: johnsongrass (Sorghum halepense); test: Test B pre-/postemergence plant response
Method in brief: as §1

[11] = system: giant foxtail (Setaria faberii); test: Test B pre-/postemergence plant response
Method in brief: as §1

[12] = system: ragweed (common ragweed, Ambrosia elatior); test: Test B pre-/postemergence plant response
Method in brief: as §1

[13] = system: yellow nutsedge (Cyperus esculentus); test: Test B pre-/postemergence plant response
Method in brief: as §1

[14] = system: soybean (Glycine max); test: Test B pre-/postemergence plant response
Method in brief: as §1

[15] = system: kochia (Kochia scoparia); test: Test B pre-/postemergence plant response
Method in brief: as §1

[16] = system: windgrass (Apera spica-venti); test: Test B postemergence plant response
Method in brief: (§2)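 Plants at the 1- to 4-leaf stage (2 to 18 cm tall), grown in pots of peat moss/vermiculite medium with wetting agent and starter nutrients, received postemergence applications of test chemicals. After 13 to 15 days in a greenhouse, injury was rated visually against untreated controls on a 0 (no effect) to 100 (complete control) scale.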

[17] = system: canarygrass (Phalaris minor); test: Test B postemergence plant response
Method in brief: as §2

[18] = system: chickweed (Stellaria media); test: Test B postemergence plant response
Method in brief: as §2

[19] = 31 g ai/ha, postemergence, scale 0 to 100, 0 is no effect, 100 is complete control
[20] = 250 g ai/ha, Preemergence, 0 to 100 scale
[21] = Postemergence, 62 g ai/ha, scale 0 (no effect) to 100 (complete control), 13 to 15 days
[22] = Postemergence, 125 g ai/ha, visual rating after 13 to 15 days, scale 0 (no effect) to 100 (complete control)
[23] = Postemergence, 250 g ai/ha, scale 0 to 100 (0 no effect, 100 complete control)
[24] = Preemergence, 31 g ai/ha, scale 0 to 100 (0 no effect, 100 complete control)
[25] = Preemergence, 62 g ai/ha, scale 0 to 100, 0 no effect, 100 complete control
[26] = Preemergence, 125 g ai/ha, scale 0 to 100, 0 no effect, 100 complete control

Cc1ccc(Cl)cc1-n1c(-c2ccccc2)ncc(C(=O)C2=C(O)CCCC2=O)c1=O [Compound 52]
Plant response rating, Bermudagrass [1, 19]: 85
Plant response rating, Bermudagrass [1, 20]: 100
Plant response rating, Bermudagrass [1, 21]: 95
Plant response rating, Bermudagrass [1, 22]: 95
Plant response rating, Bermudagrass [1, 23]: 100
Plant response rating, Bermudagrass [1, 24]: 98
Plant response rating, Bermudagrass [1, 25]: 98
Plant response rating, Bermudagrass [1, 26]: 98
Plant response rating, Foxtail, Green [2, 19]: 95
Plant response rating, Foxtail, Green [2, 20]: 100
Plant response rating, Foxtail, Green [2, 21]: 98
Plant response rating, Foxtail, Green [2, 22]: 98
Plant response rating, Foxtail, Green [2, 23]: 100
Plant response rating, Foxtail, Green [2, 24]: 0
Plant response rating, Foxtail, Green [2, 25]: 30
Plant response rating, Foxtail, Green [2, 26]: 45
Plant response rating, Velvetleaf [3, 19]: 95
Plant response rating, Velvetleaf [3, 20]: 100
Plant response rating, Velvetleaf [3, 21]: 98
Plant response rating, Velvetleaf [3, 22]: 98
Plant response rating, Velvetleaf [3, 23]: 100
Plant response rating, Velvetleaf [3, 24]: 80
Plant response rating, Velvetleaf [3, 25]: 98
Plant response rating, Velvetleaf [3, 26]: 98
Plant response rating, Wheat [4, 19]: 15
Plant response rating, Wheat [4, 20]: 0
Plant response rating, Wheat [4, 21]: 25
Plant response rating, Wheat [4, 22]: 35
Plant response rating, Wheat [4, 23]: 35
Plant response rating, Wheat [4, 24]: 0
Plant response rating, Wheat [4, 25]: 0
Plant response rating, Wheat [4, 26]: 0
Plant response rating, Morningglory [5, 19]: 10
Plant response rating, Morningglory [5, 20]: 55
Plant response rating, Morningglory [5, 21]: 45
Plant response rating, Morningglory [5, 22]: 75
Plant response rating, Morningglory [5, 23]: 85
Plant response rating, Morningglory [5, 24]: 0
Plant response rating, Morningglory [5, 25]: 0
Plant response rating, Morningglory [5, 26]: 45
Plant response rating, Oat, Wild [6, 19]: 90
Plant response rating, Oat, Wild [6, 20]: 60
Plant response rating, Oat, Wild [6, 21]: 90
Plant response rating, Oat, Wild [6, 22]: 95
Plant response rating, Oat, Wild [6, 23]: 95
Plant response rating, Oat, Wild [6, 24]: 0
Plant response rating, Oat, Wild [6, 25]: 5
Plant response rating, Oat, Wild [6, 26]: 5
Plant response rating, Bromegrass, Downy [7, 19]: 50
Plant response rating, Bromegrass, Downy [7, 20]: 5
Plant response rating, Bromegrass, Downy [7, 21]: 55
Plant response rating, Bromegrass, Downy [7, 22]: 60
Plant response rating, Bromegrass, Downy [7, 23]: 70
Plant response rating, Bromegrass, Downy [7, 24]: 0
Plant response rating, Bromegrass, Downy [7, 25]: 5
Plant response rating, Bromegrass, Downy [7, 26]: 5
Plant response rating, Blackgrass [8, 19]: 5
Plant response rating, Blackgrass [8, 20]: 10
Plant response rating, Blackgrass [8, 21]: 5
Plant response rating, Blackgrass [8, 22]: 25
Plant response rating, Blackgrass [8, 23]: 30
Plant response rating, Blackgrass [8, 24]: 0
Plant response rating, Blackgrass [8, 25]: 0
Plant response rating, Blackgrass [8, 26]: 0
Plant response rating, Cocklebur [9, 19]: 75
Plant response rating, Cocklebur [9, 20]: 75
Plant response rating, Cocklebur [9, 21]: 85
Plant response rating, Cocklebur [9, 22]: 85
Plant response rating, Cocklebur [9, 23]: 85
Plant response rating, Cocklebur [9, 24]: 0
Plant response rating, Cocklebur [9, 25]: 0
Plant response rating, Cocklebur [9, 26]: 10
Plant response rating, Johnsongrass [10, 19]: 75
Plant response rating, Johnsongrass [10, 20]: 95
Plant response rating, Johnsongrass [10, 21]: 85
Plant response rating, Johnsongrass [10, 22]: 90
Plant response rating, Johnsongrass [10, 23]: 95
Plant response rating, Johnsongrass [10, 24]: 10
Plant response rating, Johnsongrass [10, 25]: 75
Plant response rating, Johnsongrass [10, 26]: 90
Plant response rating, Foxtail, Giant [11, 19]: 80
Plant response rating, Foxtail, Giant [11, 20]: 75
Plant response rating, Foxtail, Giant [11, 21]: 80
Plant response rating, Foxtail, Giant [11, 22]: 90
Plant response rating, Foxtail, Giant [11, 23]: 90
Plant response rating, Foxtail, Giant [11, 24]: 0
Plant response rating, Foxtail, Giant [11, 25]: 15
Plant response rating, Foxtail, Giant [11, 26]: 25
Plant response rating, Ragweed [12, 19]: 75
Plant response rating, Ragweed [12, 20]: 95
Plant response rating, Ragweed [12, 21]: 80
Plant response rating, Ragweed [12, 22]: 80
Plant response rating, Ragweed [12, 23]: 85
Plant response rating, Ragweed [12, 24]: 80
Plant response rating, Ragweed [12, 25]: 80
Plant response rating, Ragweed [12, 26]: 85
Plant response rating, Nutsedge, Yellow [13, 19]: 20
Plant response rating, Nutsedge, Yellow [13, 20]: 90
Plant response rating, Nutsedge, Yellow [13, 21]: 25
Plant response rating, Nutsedge, Yellow [13, 22]: 45
Plant response rating, Nutsedge, Yellow [13, 23]: 65
Plant response rating, Nutsedge, Yellow [13, 24]: 0
Plant response rating, Nutsedge, Yellow [13, 25]: 25
Plant response rating, Nutsedge, Yellow [13, 26]: 80
Plant response rating, Soybean [14, 19]: 80
Plant response rating, Soybean [14, 20]: 80
Plant response rating, Soybean [14, 21]: 95
Plant response rating, Soybean [14, 22]: 95
Plant response rating, Soybean [14, 23]: 98
Plant response rating, Soybean [14, 24]: 0
Plant response rating, Soybean [14, 25]: 0
Plant response rating, Soybean [14, 26]: 55
Plant response rating, Kochia [15, 19]: 20
Plant response rating, Kochia [15, 21]: 25
Plant response rating, Kochia [15, 22]: 55
Plant response rating, Kochia [15, 23]: 65
Plant response rating, Windgrass [16, 19]: 60
Plant response rating, Windgrass [16, 21]: 80
Plant response rating, Windgrass [16, 22]: 90
Plant response rating, Windgrass [16, 23]: 100
Plant response rating, Canarygrass [17, 19]: 0
Plant response rating, Canarygrass [17, 21]: 50
Plant response rating, Canarygrass [17, 22]: 65
Plant response rating, Canarygrass [17, 23]: 85
Plant response rating, Chickweed [18, 19]: 95
Plant response rating, Chickweed [18, 21]: 95
Plant response rating, Chickweed [18, 22]: 95
Plant response rating, Chickweed [18, 23]: 98
